Measurements: PubChem BioAssay AID2060510 (Molecular Pharmacology Branch, DTP, NCI, 2025)

Tested on: 439559-082-T-J2-PDC spheroids viability
Experiment: Anticancer human tumor 439559-082-T-J2-PDC patient-derived colon adenocarcinoma cell line growth inhibition [GQUAD]
Conditions: for IC50: curve of first compound; for viability, T/C: stronger effect = lower value; active = viability on the fitted dose curve at most 10% of control; inactive = the rest
Outline: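 Viability of tumor cells grown as complex spheroids with endothelial and stromal cells, exposed to drug combinations. Top concentration at or near clinical Cmax (else 10 microM), diluted in half-log increments.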

[1] = second compound 0.0316 µM, first compound 0.0316 µM
[2] = second compound 0.0316 µM, first compound 0.1 µM
[3] = second compound 0.0316 µM, first compound 0.316 µM
[4] = second compound 0.0316 µM, first compound 1 µM
[5] = second compound 0.0316 µM, first compound 3.16 µM
[6] = second compound 0.0316 µM, first compound 10 µM
[7] = second compound 0.1 µM, first compound 0.0316 µM
[8] = second compound 0.1 µM, first compound 0.1 µM
[9] = second compound 0.1 µM, first compound 0.316 µM
[10] = second compound 0.1 µM, first compound 1 µM
[11] = second compound 0.1 µM, first compound 3.16 µM
[12] = second compound 0.1 µM, first compound 10 µM
[13] = second compound 0.316 µM, first compound 0.0316 µM
[14] = second compound 0.316 µM, first compound 0.1 µM
[15] = second compound 0.316 µM, first compound 0.316 µM
[16] = second compound 0.316 µM, first compound 1 µM
[17] = second compound 0.316 µM, first compound 3.16 µM
[18] = second compound 0.316 µM, first compound 10 µM
[19] = second compound 1 µM, first compound 0.0316 µM
[20] = second compound 1 µM, first compound 0.1 µM
[21] = second compound 1 µM, first compound 0.316 µM
[22] = second compound 1 µM, first compound 1 µM
[23] = second compound 1 µM, first compound 3.16 µM
[24] = second compound 1 µM, first compound 10 µM
[25] = second compound 3.16 µM, first compound 0.0316 µM
[26] = second compound 3.16 µM, first compound 0.1 µM
[27] = second compound 3.16 µM, first compound 0.316 µM
[28] = second compound 3.16 µM, first compound 1 µM
[29] = second compound 3.16 µM, first compound 3.16 µM
[30] = second compound 3.16 µM, first compound 10 µM
[31] = second compound 10 µM, first compound 0.0316 µM
[32] = second compound 10 µM, first compound 0.1 µM
[33] = second compound 10 µM, first compound 0.316 µM
[34] = second compound 10 µM, first compound 1 µM
[35] = second compound 10 µM, first compound 3.16 µM
[36] = second compound 10 µM, first compound 10 µM
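Also: spheroids exposed to the agents for 7 days before readout.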
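For viability, T/C in this document: percent of luminescence signal in DMSO vehicle wells taken as 100% viability.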

C=CCn1c(=O)c2cnc(Nc3ccc(N4CCN(C)CC4)cc3)nc2n1-c1cccc(C(C)(C)O)n1 + Cc1[nH]c2ccc(F)cc2c1-c1nc2c3cccnc3c3ncccc3c2[nH]1
8.08 µM: IC50 (second compound 0.316 µM)
5.74 µM: IC50 (second compound 3.16 µM)
> 10 µM: IC50 (second compound 0.1 µM)
7.9 µM: IC50 (second compound 0.0316 µM)
5.56 µM: IC50 (second compound 10 µM)
8.33 µM: IC50 (second compound 1 µM)
inactive: viability, T/C [1] 94.2% | viability, T/C [2] 92.7% | viability, T/C [3] 97.6% | viability, T/C [4] 101% | viability, T/C [5] 115% | viability, T/C [6] 37% | viability, T/C [7] 96.6% | viability, T/C [8] 88.4% | viability, T/C [9] 103% | viability, T/C [10] 92.9% | viability, T/C [11] 98.5% | viability, T/C [12] 57.4% | viability, T/C [13] 97.7% | viability, T/C [14] 102% | viability, T/C [15] 89% | viability, T/C [16] 104% | viability, T/C [17] 106% | viability, T/C [18] 38.6% | viability, T/C [19] 107% | viability, T/C [20] 99% | viability, T/C [21] 100% | viability, T/C [22] 95.7% | viability, T/C [23] 96.9% | viability, T/C [24] 41.2% | viability, T/C [25] 80.5% | viability, T/C [26] 80.2% | viability, T/C [27] 78.7% | viability, T/C [28] 75.5% | viability, T/C [29] 76.1% | viability, T/C [30] 25.9% | viability, T/C [31] 97.4% | viability, T/C [32] 71.8% | viability, T/C [33] 72.6% | viability, T/C [34] 71.3% | viability, T/C [35] 80.4% | viability, T/C [36] 20.3%

CC(C)(O)C1CCC(Nc2ccc3ncc(-c4cccc(C(F)(F)F)c4)n3n2)CC1 (stereo not drawn) + Cc1[nH]c2ccc(F)cc2c1-c1nc2c3cccnc3c3ncccc3c2[nH]1
3.21 µM: IC50 (second compound 3.16 µM)
6.31 µM: IC50 (second compound 1 µM)
1.23 µM: IC50 (second compound 10 µM)
> 10 µM: IC50 (second compound 0.0316 µM) | IC50 (second compound 0.316 µM)
inactive: viability, T/C [1] 99.4% | viability, T/C [2] 85.6% | viability, T/C [3] 70.6% | viability, T/C [4] 66% | viability, T/C [5] 58.8% | viability, T/C [6] 48.6% | viability, T/C [7] 102% | viability, T/C [8] 78% | viability, T/C [9] 77.9% | viability, T/C [10] 58.8% | viability, T/C [11] 66.2% | viability, T/C [12] 42.9% | viability, T/C [13] 86.3% | viability, T/C [14] 76.6% | viability, T/C [15] 62.4% | viability, T/C [16] 61.9% | viability, T/C [17] 53.6% | viability, T/C [18] 50.1% | viability, T/C [19] 87.1% | viability, T/C [20] 69.1% | viability, T/C [21] 76.4% | viability, T/C [22] 66.3% | viability, T/C [23] 61.4% | viability, T/C [24] 42.5% | viability, T/C [25] 77.8% | viability, T/C [26] 73% | viability, T/C [27] 62.3% | viability, T/C [28] 51.3% | viability, T/C [29] 57.7% | viability, T/C [30] 41.1% | viability, T/C [31] 75.8% | viability, T/C [32] 73% | viability, T/C [33] 63.4% | viability, T/C [34] 50.6% | viability, T/C [35] 44.5% | viability, T/C [36] 38.2%
7.93 µM: IC50 (second compound 0.1 µM)

Cc1[nH]c2ccccc2c1CCNCc1ccc(/C=C/C(=O)NO)cc1 + Cc1[nH]c2ccc(F)cc2c1-c1nc2c3cccnc3c3ncccc3c2[nH]1
> 0.316 µM: IC50 (second compound 0.0316 µM) | IC50 (second compound 0.1 µM) | IC50 (second compound 0.316 µM) | IC50 (second compound 1 µM) | IC50 (second compound 3.16 µM) | IC50 (second compound 10 µM)
inactive: viability, T/C (second compound 0.0316 µM, first compound 0.000999 µM) 97.3% | viability, T/C (second compound 0.0316 µM, first compound 0.00316 µM) 107% | viability, T/C (second compound 0.0316 µM, first compound 0.00999 µM) 92.6% | viability, T/C [1] 85.9% | viability, T/C (second compound 0.0316 µM, first compound 0.0999 µM) 102% | viability, T/C [3] 97.9% | viability, T/C (second compound 0.1 µM, first compound 0.000999 µM) 120% | viability, T/C (second compound 0.1 µM, first compound 0.00316 µM) 86.1% | viability, T/C (second compound 0.1 µM, first compound 0.00999 µM) 107% | viability, T/C [7] 92.9% | viability, T/C (second compound 0.1 µM, first compound 0.0999 µM) 101% | viability, T/C [9] 105% | viability, T/C (second compound 0.316 µM, first compound 0.000999 µM) 115% | viability, T/C (second compound 0.316 µM, first compound 0.00316 µM) 91.1% | viability, T/C (second compound 0.316 µM, first compound 0.00999 µM) 95.6% | viability, T/C [13] 100% | viability, T/C (second compound 0.316 µM, first compound 0.0999 µM) 91.6% | viability, T/C [15] 100% | viability, T/C (second compound 1 µM, first compound 0.000999 µM) 92.5% | viability, T/C (second compound 1 µM, first compound 0.00316 µM) 88.8% | viability, T/C (second compound 1 µM, first compound 0.00999 µM) 87.3% | viability, T/C [19] 93.2% | viability, T/C (second compound 1 µM, first compound 0.0999 µM) 91.9% | viability, T/C [21] 91.3% | viability, T/C (second compound 3.16 µM, first compound 0.000999 µM) 84% | viability, T/C (second compound 3.16 µM, first compound 0.00316 µM) 70.6% | viability, T/C (second compound 3.16 µM, first compound 0.00999 µM) 87.9% | viability, T/C [25] 78.5% | viability, T/C (second compound 3.16 µM, first compound 0.0999 µM) 90.2% | viability, T/C [27] 85.7% | viability, T/C (second compound 10 µM, first compound 0.000999 µM) 74% | viability, T/C (second compound 10 µM, first compound 0.00316 µM) 80.9% | viability, T/C (second compound 10 µM, first compound 0.00999 µM) 82.6% | viability, T/C [31] 83.2% | viability, T/C (second compound 10 µM, first compound 0.0999 µM) 91.5% | viability, T/C [33] 83.3%

O=C(NO)c1cnc(N2CCN(S(=O)(=O)c3ccc4ccccc4c3)CC2)nc1 + Cc1[nH]c2ccc(F)cc2c1-c1nc2c3cccnc3c3ncccc3c2[nH]1
2.04 µM: IC50 (second compound 1 µM)
1.35 µM: IC50 (second compound 3.16 µM)
1.87 µM: IC50 (second compound 0.1 µM)
2.1 µM: IC50 (second compound 0.0316 µM)
inactive: viability, T/C [1] 90.8% | viability, T/C [2] 86% | viability, T/C [3] 75.8% | viability, T/C [4] 60.1% | viability, T/C [5] 44.6% | viability, T/C [6] 31.5% | viability, T/C [7] 84.4% | viability, T/C [8] 79.8% | viability, T/C [9] 75.9% | viability, T/C [10] 64.4% | viability, T/C [11] 37.9% | viability, T/C [12] 31.4% | viability, T/C [13] 85.4% | viability, T/C [14] 76.4% | viability, T/C [15] 76% | viability, T/C [16] 65% | viability, T/C [17] 55.9% | viability, T/C [18] 30.8% | viability, T/C [19] 86.2% | viability, T/C [20] 85.2% | viability, T/C [21] 77.1% | viability, T/C [22] 64.8% | viability, T/C [23] 41% | viability, T/C [24] 25.7% | viability, T/C [25] 70.3% | viability, T/C [26] 73.7% | viability, T/C [27] 62.1% | viability, T/C [28] 58.1% | viability, T/C [29] 31.6% | viability, T/C [30] 25.8% | viability, T/C [31] 68.2% | viability, T/C [32] 67.4% | viability, T/C [33] 58.4% | viability, T/C [34] 53.1% | viability, T/C [35] 24.2% | viability, T/C [36] 22.4%
1.09 µM: IC50 (second compound 10 µM)
3.79 µM: IC50 (second compound 0.316 µM)
